Assay results reported in ChEMBL document CHEMBL3872220, “Amphiphilic xanthones as a potent chemical entity of anti-mycobacterial agents with membrane-targeting properties” (Eur J Med Chem, 2016).
≈ marks a conversion by molar mass, not a printed value.

These molecules were tested on Mycobacterium tuberculosis variant bovis (assay: Bactericidal activity against Mycobacterium bovis BCG ATCC 35734 assessed as log reduction in bacterial colonies up to 8 times MIC measured after 24 hrs by time-kill assay). Details: not given.
Assay type: functional, Mycobacterium tuberculosis variant bovis BCG
`NNC(=O)c1ccncc1` [ISONIAZID] was tested, and the Activity was 2.6.

Each molecule was assayed on Mycobacterium tuberculosis variant bovis (assay: Antimycobacterial activity against Mycobacterium bovis BCG ATCC 35734 after 5 days by broth dilution assay). Details: ATCC 35734, 120 h.
Assay type: functional
In the case of `CCN(CC)CCOc1cc2oc3cc(OCCN(CC)CC)c(OC)c(CC=C(C)C)c3c(=O)c2c(O)c1CC=C(C)C`, the MIC90 is reported as 6.4 µM (≈ 3.9 µg/mL).
For `COc1c(OCC(O)CNCCNCCNCCN)cc2oc3cc(OCC(O)CNCCNCCNCCN)c(CC=C(C)C)c(O)c3c(=O)c2c1CC=C(C)C` (centres undefined), the MIC90 was > 30 µM.
For `COC(=O)C(Cc1cnc[nH]1)NC(=O)COc1cc2oc3cc(OCC(=O)NC(Cc4cnc[nH]4)C(=O)OC)c(OC)c(CC=C(C)C)c3c(=O)c2c(O)c1CC=C(C)C` (centres undefined), the MIC90 was > 30 µM.
Molecule `CC[C@@H](CO)NCCN[C@@H](CC)CO` [ETHAMBUTOL] has an MIC90 of 6.25 µM (≈ 1.28 µg/mL).
With `COC(=O)C(CCCNC(=N)N)NC(=O)COc1cc2oc3cc(OCC(=O)NC(CCCNC(=N)N)C(=O)OC)c(OC)c(CC=C(C)C)c3c(=O)c2c(O)c1CC=C(C)C` (centres undefined) the MIC90 was 12.8 µM (≈ 11.1 µg/mL).
With `COc1c(OCC(=O)NC(CCCNC(=N)N)C(N)=O)cc2oc3cc(OCC(=O)NC(CCCNC(=N)N)C(N)=O)c(CC=C(C)C)c(O)c3c(=O)c2c1CC=C(C)C` (centres undefined) the MIC90 was > 30 µM.
Molecule `CCCN(CCC)CC(O)COc1cc2oc3cc(OCC(O)CN(CCC)CCC)c(OC)c(CC=C(C)C)c3c(=O)c2c(O)c1CC=C(C)C` (centres undefined) has an MIC90 of 6.4 µM (≈ 4.64 µg/mL).
`CCN(CC)CCCCOc1ccc2c(=O)c3c(O)cc(OCCCCN(CC)CC)cc3oc2c1` was tested, and the MIC90 was > 30 µM.
`COc1c(OCCCCN(C)C)cc2oc3cc(OCCCCN(C)C)c(CCC(C)C)c(O)c3c(=O)c2c1CCC(C)C` gave an MIC90 of 6.4 µM (≈ 3.92 µg/mL).
In the case of `CCN(CC)CCCCCCCOc1cc2oc3cc(OCCCCCCCN(CC)CC)c(OC)c(CC=C(C)C)c3c(=O)c2c(O)c1CC=C(C)C`, the MIC90 is reported as 6.4 µM (≈ 4.79 µg/mL).
With `CN[C@@H]1[C@H](O[C@H]2[C@H](O[C@H]3[C@H](O)[C@@H](O)[C@H](N=C(N)N)[C@@H](O)[C@@H]3N=C(N)N)O[C@@H](C)[C@]2(O)C=O)O[C@@H](CO)[C@H](O)[C@H]1O` [STREPTOMYCIN] the MIC90 was 0.39 µM (≈ 0.227 µg/mL).
`CCN(CC)CC(O)COc1cc2oc3cc(OCC(O)CN(CC)CC)c(OC)c(CC=C(C)C)c3c(=O)c2c(O)c1CC=C(C)C` (centres undefined) gave an MIC90 of 6.4 µM (≈ 4.28 µg/mL).
`COc1c(OCCCCN2CCSCC2)cc2oc3cc(OCCCCN4CCSCC4)c(CC=C(C)C)c(O)c3c(=O)c2c1CC=C(C)C` was tested, and the MIC90 was 30 µM (≈ 21.8 µg/mL).
In the case of `CO[C@H]1/C=C/O[C@@]2(C)Oc3c(C)c(O)c4c(O)c(c(/C=N/N5CCN(C)CC5)c(O)c4c3C2=O)NC(=O)/C(C)=C\C=C\[C@H](C)[C@H](O)[C@@H](C)[C@@H](O)[C@@H](C)[C@H](OC(C)=O)[C@@H]1C` [RIFAMPIN], the MIC90 is reported as 0.02 µM (≈ 0.0165 µg/mL).
`CCN(CC)CCCOc1cc2oc3cc(OCCCN(CC)CC)c(OC)c(CC=C(C)C)c3c(=O)c2c(O)c1CC=C(C)C` was tested, and the MIC90 was 6.4 µM (≈ 4.08 µg/mL).
Work on `CCN(CC)CCCCOc1cc2oc3cc(OCCCCN(CC)CC)c(OC)c(CCC(C)C)c3c(=O)c2c(O)c1CCC(C)C` yielded an MIC90 of 6.4 µM (≈ 4.28 µg/mL).
Molecule `NNC(=O)c1ccncc1` [ISONIAZID] has an MIC90 of 6.25 µM (≈ 0.857 µg/mL).
For `CCN(CC)CCCCOc1cc2oc3cc(OCCCCN(CC)CC)c(OC)c(CC=C(C)C)c3c(=O)c2c(OCCCCN(CC)CC)c1CC=C(C)C`, the MIC90 was 6.4 µM (≈ 5.07 µg/mL).
`COc1c(OCC(O)CNC(CO)(CO)CO)cc2oc3cc(OCC(O)CNC(CO)(CO)CO)c(CC=C(C)C)c(O)c3c(=O)c2c1CC=C(C)C` (centres undefined) was tested, and the MIC90 was > 30 µM.
Molecule `COc1c(OCCCCN2CCOCC2)cc2oc3cc(OCCCCN4CCOCC4)c(CC=C(C)C)c(OCCCCN4CCOCC4)c3c(=O)c2c1CC=C(C)C` has an MIC90 of 12.8 µM (≈ 10.7 µg/mL).
With `COc1c(OCC(O)CNCCN)cc2oc3cc(OCC(O)CNCCN)c(CC=C(C)C)c(O)c3c(=O)c2c1CC=C(C)C` (centres undefined) the MIC90 was > 30 µM.
`COc1c(OCC(O)CNCCNC(=N)N)cc2oc3cc(OCC(O)CNCCNC(=N)N)c(CC=C(C)C)c(O)c3c(=O)c2c1CC=C(C)C` (centres undefined) was tested, and the MIC90 was > 30 µM.
Molecule `CCCCN(CC)CCCCOc1cc2oc3cc(OCCCCN(CC)CCCC)c(OC)c(CC=C(C)C)c3c(=O)c2c(O)c1CC=C(C)C` has an MIC90 of 3.2 µM (≈ 2.31 µg/mL).
